# From PMC11053488, “Influence of Aza-Glycine Substitution on the Internalization of Penetratin” (Pharmaceutics, 2024)
# How the values were obtained:
# A-431 cells [1] = experiment: Cellular uptake of Cf-labelled peptides by flow cytometry; assay type: cell-based; details: 5 µM, 90 min, 37 °C, compared with Pen(desMet)
# Description: The cells were treated with a solution of peptides at 5 µM concentration at 37 °C for 90 min. The measured fluorescence values were corrected with the autofluorescence of the untreated cells. To determine the toxicity of the conjugates, the live/dead cell ratio was calculated.
# Figure 2 Comparison of the cellular uptake of the labelled penetratin derivatives into A-431 cells. Cells were incubated with 5 µM peptide solution for 90 min at 37 °C. The fluorescence intensity of the cells was determined by flow cytometry. The fluorescence intensity is relative to Pen(desMet) at 5 µM (100%). Data represent the mean ± standard deviation (SD). Any significant difference to the control was measured using the Student’s t test.
# A-431 cells [2] = experiment: Cellular uptake after pretreatment with endocytosis inhibitors or ATP depletion, flow cytometry; details: then peptide 5 µM 90 min; for Cellular uptake with NaN3 and DOG, % of the untreated control: NaN3 500 µM and 2-deoxyglucose 250 mM pretreatment 30 min (ATP depletion), mean
# Description: The cells were incubated for 24 h at 37 °C. The cells were treated with a serum-free medium as a negative control and with peptide solutions in 5 µM concentration in a serum-free medium for 90 min. After the incubation, the cells were washed, and 100 µL of trypsin was applied for 10 min to eliminate peptides adhered to the membrane and to detach the cells from the plates. Trypsin activity was stopped by adding 800 µL of HPMI buffer (glucose, NaHCO3, NaCl, HEPES, KCl, MgCl2, CaCl2, Na2HPO4·2H2O) containing 10% fetal bovine serum. Cells were then transferred from the plates to FACS tubes. Centrifugation of the cells took place at 216× g at 4 °C for 5 min, and the supernatant was removed. Resuspension of the cells was performed by 250 µL HPMI, followed by fluorescence intensity measurements using a flow cytometer (BDLSR II, BD Bioscience, San Jose, CA, USA). The analysis of the data was performed using FACSDiVa 5.0 software. To study the effect of inhibitors, cells were pretreated with the solution of inhibitors for 30 min, followed by the treatment with the peptide solution at 5 µM for 90 min. Inhibition of macropinocytosis was performed by using 5-(N-Ethyl-N-isopropyl)amiloride (EIPA) (500 µM) [46], of clathrin-mediated endocytosis by using chlorpromazine (CPZ) (300 µM) [47]. The caveolae/lipid raft-mediated endocytosis was prevented with methyl-β-cyclodextrin (mBCD) (36 mM) [48], and colchicine (Col) (200 mM) was employed to determine the role of microtubules and consequently, the significance of pinocytosis [49]. To inhibit all endocytosis routes, sodium azide (NaN3) (500 µM) and 2-Deoxyglucose (DOG) (250 mM) was used.
# The following endocytic inhibitors were used: EIPA (5-(N-ethyl-N-isopropyl) amiloride) as an inhibitor of macropinocytosis, chlorpromazine (CPZ) as an inhibitor of a clathrin-mediated endocytosis, and the cholesterol-depleting reagent methyl-beta-cyclodextrin (mBCD) was used to inhibit the caveolae-mediated endocytosis. Finally, colchicine (COL) was applied to inhibit microtubule formation.
# A-431 cells were pretreated with the EIPA (500 µM), CPZ (300 µM), mBCD (36 mM), COL (200 mM), NaN3 (500 µM), and DOG (250 mM) for 30 min, followed by treatment with peptides (5 µM) for 90 min. Any significant difference from the control was determined by Student’s t-test (* p < 0.05). Data represent the mean ± standard deviation (SD).The asterisks show a significant difference between the control Pen(desMet) and its derivatives (* p < 0.05, ** p < 0.01, *** p < 0.001).
# In addition, the A-431 cells were pretreated with sodium azide (NaN3) and 2-deoxyglucose (DOG) to study the energy-independent pathways. This pretreatment results in ATP depletion and therefore the inhibition of energy-dependent pathways (Figure 3).
Substance,Cellular uptake (in words) (A-431 cells [1]),"Cellular uptake with NaN3 and DOG, % of the untreated control (A-431 cells [2]) [%]",Effect of azide/DOG treatment on cellular uptake (in words) (A-431 cells [2]; NaN3 500 µM and DOG 250 mM pretreatment 30 min)
"Cf-RQIKI-azaGly-FQNRRKWKK-NH2 [Trp48aGlyPen(desMet), Cf-labelled Pen(desMet) with Trp48 replaced by aza-glycine]",dramatically decreased the cellular uptake,–,–
"Cf-RQIKIGFQNRRKWKK-NH2 [Trp48GlyPen(desMet), Cf-labelled Pen(desMet) with Trp48 replaced by glycine]",dramatically decreased the cellular uptake,–,–
Cf-RQIKIWFQNRRK-azaGly-KK-NH2 [Trp56aGlyPen(desMet)],–,97,did not have any effect
Cf-RQIKIWFQNRRKGKK-NH2 [Trp56GlyPen(desMet)],–,50,–
Cf-RQIKIWFQNRRKWKK-NH2 [Pen(desMet)],–,79,–
